Laboratory results taken from patent US4582821A, “Inhibition of cyclic nucleotide independent protein kinases” (E. I. Du Pont de Nemours and Company, priority 1983, dated 1986).

Columns and labels:
hexokinase = settings: Johnson et al., Biochemistry 21:2984 (1982); cited from earlier work
protein kinase = settings: Johnson et al., Biochemistry 21:2984 (1982); cited from earlier work
A-431 cell EGF receptor = target: T1, A-431 cell EGF receptor (Homo sapiens, UniProt P00533); assay: Protein phosphorylation of A-431 cell membrane EGF receptors (intact membranes, EGF present); assay type: biochemical; settings: 600 nmoles/mg protein, intact A-431 membranes
T1 construct: intact A-431 cell membranes were employed, rather than solubilized extracts; endogenous in cells; host or cells: A-431 human epidermoid carcinoma cells (plasma membranes)
T1 sequence (P00533 25-1210): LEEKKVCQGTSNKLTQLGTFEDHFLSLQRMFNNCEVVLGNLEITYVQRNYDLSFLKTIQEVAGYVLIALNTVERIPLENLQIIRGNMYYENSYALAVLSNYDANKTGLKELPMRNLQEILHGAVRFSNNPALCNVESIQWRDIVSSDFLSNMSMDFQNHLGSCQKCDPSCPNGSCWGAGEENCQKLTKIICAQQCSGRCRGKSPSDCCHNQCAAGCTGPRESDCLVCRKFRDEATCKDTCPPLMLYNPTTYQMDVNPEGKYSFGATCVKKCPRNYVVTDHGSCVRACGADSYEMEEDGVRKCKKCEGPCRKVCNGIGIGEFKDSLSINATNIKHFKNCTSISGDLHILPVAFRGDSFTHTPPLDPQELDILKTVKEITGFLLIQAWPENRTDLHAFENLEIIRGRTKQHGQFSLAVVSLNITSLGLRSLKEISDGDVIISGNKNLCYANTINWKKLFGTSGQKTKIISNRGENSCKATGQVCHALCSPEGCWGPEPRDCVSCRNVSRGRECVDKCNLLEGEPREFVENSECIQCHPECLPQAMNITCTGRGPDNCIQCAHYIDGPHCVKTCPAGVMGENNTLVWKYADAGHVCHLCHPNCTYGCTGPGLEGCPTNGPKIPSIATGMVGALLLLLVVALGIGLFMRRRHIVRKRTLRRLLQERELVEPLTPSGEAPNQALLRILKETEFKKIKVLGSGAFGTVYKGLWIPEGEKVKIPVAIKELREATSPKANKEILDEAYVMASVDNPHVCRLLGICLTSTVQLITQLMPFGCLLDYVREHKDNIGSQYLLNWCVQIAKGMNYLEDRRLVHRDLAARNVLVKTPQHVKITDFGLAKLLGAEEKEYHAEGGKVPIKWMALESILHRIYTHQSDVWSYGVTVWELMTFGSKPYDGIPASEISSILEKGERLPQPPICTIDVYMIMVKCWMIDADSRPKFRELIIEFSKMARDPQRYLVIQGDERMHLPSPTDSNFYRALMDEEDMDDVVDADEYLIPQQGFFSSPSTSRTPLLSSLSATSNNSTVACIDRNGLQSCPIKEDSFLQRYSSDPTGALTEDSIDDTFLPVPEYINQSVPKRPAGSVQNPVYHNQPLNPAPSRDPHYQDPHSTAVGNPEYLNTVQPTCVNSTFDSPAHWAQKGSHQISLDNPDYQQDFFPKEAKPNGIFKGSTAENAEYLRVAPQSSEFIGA
Experimental: (§1) Protein phosphorylation assays were conducted substantially as described by Carpenter et al., J. Biol. Chem. 254:4884 (1979). Each assay mixture contained, in a final volume of 70 μL: 20 mM Hepes, pH 7.4, 0.01% bovine serum albumin (BSA), 15-150 μg protein in Triton extract, 100 ng EGF, 1 mM MnCl2 and 10-20 μM [γ-^32 P] ATP (2-4 μCi). Peptide halomethyl ketones were added as solutions in ethanol; an equivalent volume of ethanol was added to controls. Assay mixtures were incubated at about 23° for ten minutes, with or without added EGF. Mixtures were then held at 0° for ten minutes before initiation of phosphorylation by addition of 15 μM γ-^32 P) ATP (2 μCi). Reactions were terminated after 3 minutes at 0° by applying an aliquot of the assay mixture to a Whatman 3MM filter paper (2×2 cm), which was then suspended in ice-cold 10% trichloroacetic acid containing 10 mM pyrophosphate. This suspension was gently shaken for a period of 1 hour, during which the trichloroacetic acid/pyrophosphate mixture was changed three times. Finally, the filter papers were dried and radioactivity measured by scintillation counting.
Assays were conducted substantially as described above, except intact A-431 cell membranes were employed, rather than solubilized extracts, and assay mixtures contained 1 mM ouabain. In these Examples, reactions were permitted to proceed for 6 minutes. This technique is substantially similar to that disclosed by Navarro et al., Biochemistry, 21:6138 (1982).

[1] = test system: A-431 plasma membrane extracts (EGF-mediated protein phosphorylation); assay: Protein phosphorylation in solubilized A-431 plasma membrane extracts, with or without EGF; assay type: biochemical, human; settings: 477 nmol/mg protein
Experimental: The capacity of certain peptide halomethyl ketones to inhibit protein phosphorylation is illustrated by Examples 1-8, below, in which solubilized plasma membranes prepared from A-431 human epidermoid carcinoma cells were incubated with [γ-^32 P] ATP in the presence of EGF.
A-431 human epidermoid carcinoma cells were grown in Dulbecco's modified Eagle's medium containing 5% fetal calf serum. Plasma membranes were isolated by a method substantially similar to that described by Thom et al., Biochem J. 168:187 (1977), and kept at -70°. Solubilization of plasma membranes was performed substantially as described by Cohen et al., J. Biol. Chem. 255:4834 (1980). In this procedure, 7.5 mg/mL protein was solubilized with 5% Triton X-100 (octylphenol), 10% glycerol, and 20 mM Hepes buffer (N-2-hydroxyethylpiperazine-N^1 -2-ethanesulfonic acid), pH 7.4. This mixture was incubated for 20 minutes at about 23°, followed by centrifugation at 100,000 xg for 60 minutes.
as §1

p130^fps = target: T2, p130^fps (UniProt P00530+P03323); assay: Immune complex phosphorylation by p130fps immunoprecipitates of FSV-transformed cells; assay type: biochemical, Fujinami sarcoma virus (FSV); settings: for Activity (cpm), FSV: anti-gag immunoprecipitates, no inhibitor 27036; for Activity (cpm), Control: extracts immunoprecipitated with normal serum, no inhibitor 2624
T2 construct: anti-gag serum and Staphylococcus protein A suspension (for FSV-transformed cells); viral gag-derived N-terminal portion (natural gag-fps fusion); expressed in transfected cells; immune complex with anti-gag serum and Staphylococcus protein A
Experimental: In this experiment, Boc-LeuCH2 Br was tested as an inhibitor of pp60^src and p130^fps, the tyrosine-specific protein kinases encoded by the transforming genes of RSV and Fujinami sarcoma virus, respectively.
These viral gene products were partially purified by preparation of immune complexes substantially according to the technique described by Collett et al., Proc. Nat. Acad. Sci. USA 75:2021 (1978). In this procedure, immunoprecipitates are prepared by incubation of extracts of virus-transformed cells with tumor-bearing rabbit serum (TBR) and Staphylococcus protein A suspension (for RSV-transformed cells) or anti-gag serum and Staphylococcus protein A suspension (for FSV-transformed cells).
Assay mixtures contained, in a final volume of 70 μL, 100 μg of immune complex protein, 20 mM Hepes, pH 7.4, and 1 mM MnCl2. Phosphorylation was initiated by addition of 1 μM (4 μCi) [γ-^32 P] ATP. After 10 minutes at about 23°, reactions were terminated by pipetting 20 μL aliquots of assay mixture onto 2×2 cm squares of Whatman 3 MM filter paper, which were immediately suspended in 10% TCA/10 mM sodium pyrophosphate. […] Controls for the immunoprecipitation procedure were prepared by immunoprecipitating transformed cell extracts with normal serum. Values in parentheses represent specific phosphorylation induced by virus-transformed cells.
In a related experiment, the capacity of Boc-LeuCH2 Br to inhibit phosphorylation of casein by p130^fps was determined. These tests were conducted substantially as described above, except 1 mg/mL casein was added to assay mixtures as a substrate, and reactions were terminated by addition of 2.5 mM unlabeled ATP and immediate cooling to 0°. Phosphorylated casein was separated from immunoprecipitate suspensions by centrifugation at 3,000 xg for 3 minutes. The resulting pellets were resuspended in 70 μL of 10 mM Hepes, pH 7.5, and 20 μL aliquots were pipetted onto filter paper squares as previously described.
This experiment was conducted substantially according to the procedures described in Example 17, above. In Table 5, "FSV" refers to immunoprecipitates of FSV-transformed cell extracts prepared by addition of anti-gag serum; controls were extracts immunoprecipitated with normal serum.

pp60^src = settings: Richert et al., Cell 18:369 (1979); cited from earlier work
ASV-transformed cells = settings: Weber, Cell 5:253 (1975); cited from earlier work

## CC(C)COC(=O)OC(C)C(=O)CCl (stereo not drawn) [2-isobutyl 3-oxo-4-chloro-2-butyl carbonate]
hexokinase
  hexokinase activity of Ehrlich ascites tumor cells (in words): inhibition
Protein kinase
  protein kinase activity of Ehrlich ascites tumor cells (in words): inhibition

## CC(C)(C)OC(=O)N[C@@H](Cc1ccc(O)cc1)C(=O)CBr [Boc-TyrCH2 Br]
A-431 cell EGF receptor
  % inhibition: 49%
[1]; EGF added
  % inhibition, EGF Added: 78%
[1]; EGF added, control 96.2
  EGF Added (pmol 32P incorporated/min/mg protein): 20.6 pmol^32 P incorporated/min/mg
[1]; no EGF
  % inhibition, No EGF Added: 83%
[1]; no EGF, control 21.6
  No EGF Added (pmol 32P incorporated/min/mg protein): 3.6 pmol^32 P incorporated/min/mg
p130^fps; 250 nmoles/mg protein
  % inhibition: 84%
  Activity (cpm), FSV: 4204 cpm
  Activity (cpm), Control: 2132 cpm
p130^fps; 500 nmoles/mg protein
  % inhibition: 87%
  Activity (cpm), FSV: 3404 cpm
  Activity (cpm), Control: 2140 cpm

## Cc1ccc(S(=O)(=O)N[C@@H](CCCCN)C(=O)CCl)cc1 [TLCK, N-α-tosyl-L-lysyl chloromethyl ketone]
pp60^src
  in vivo protein phosphorylation activity associated with pp60src (in words): observed to inhibit
ASV-transformed cells
  phenotype of ASV-transformed cells upon treatment (in words): phenotypic reversion of ASV-transformed cells to normal
